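Interpolation was linear, between the two tested concentrations surrounding the appropriate level; five concentrations were tested over 48 hours in 96-well plates. At the GI50, growth is halved. TGI denotes the concentration required for complete inhibition of growth.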
Legend:
Assay in all cases: NCI-60 cell line screen, 48 h
NCI-H522 lung = test system: NCI-H522 lung
IGROV1 ovarian = test system: IGROV1 ovarian
MALME-3M melanoma = test system: MALME-3M melanoma
MOLT-4 leukemia = test system: MOLT-4 leukemia
MDA-MB-435 = test system: MDA-MB-435
NCI-H460 lung = test system: NCI-H460 lung
SK-MEL-5 melanoma = test system: SK-MEL-5 melanoma
OVCAR-8 ovarian = test system: OVCAR-8 ovarian
SK-OV-3 ovarian = test system: SK-OV-3 ovarian
HS 578T breast = test system: HS 578T breast
786-0 renal = test system: 786-0 renal
OVCAR-3 ovarian = test system: OVCAR-3 ovarian
KM12 colon = test system: KM12 colon
NCI/ADR-RES ovarian = test system: NCI/ADR-RES ovarian
NCI-H23 lung = test system: NCI-H23 lung
UO-31 renal = test system: UO-31 renal
SW-620 colon = test system: SW-620 colon
UACC-257 melanoma = test system: UACC-257 melanoma
HCT-15 colon = test system: HCT-15 colon
COLO 205 colon = test system: COLO 205 colon
HT29 colon = test system: HT29 colon
SK-MEL-28 melanoma = test system: SK-MEL-28 melanoma
OVCAR-5 ovarian = test system: OVCAR-5 ovarian
MCF7 breast = test system: MCF7 breast
SF-539 CNS = test system: SF-539 CNS
K-562 leukemia = test system: K-562 leukemia
SK-MEL-2 melanoma = test system: SK-MEL-2 melanoma
HCC-2998 colon = test system: HCC-2998 colon

With COc1ccc(C2C=C(c3ccc(OC)c(OC)c3)N=C3SC=CN32)c(Br)c1 (stereo unspecified) the GI50 (NCI-H522 lung) was 3.11 µM, the TGI (NCI-H522 lung) was 11.7 µM and the GI50 (IGROV1 ovarian) was 2.25 µM. It also gave a TGI (IGROV1 ovarian) of 5.51 µM, a GI50 (MALME-3M melanoma) of 13.5 µM and a TGI (MALME-3M melanoma) of 32.6 µM. The GI50 (MOLT-4 leukemia) was 3.16 µM, the TGI (MOLT-4 leukemia) was 30.6 µM and the GI50 (MDA-MB-435) was 2.8 µM. For the same compound, the TGI (MDA-MB-435) was 10.5 µM, the GI50 (NCI-H460 lung) was 5.15 µM and the TGI (NCI-H460 lung) was 25.8 µM. The GI50 (SK-MEL-5 melanoma) was 3.02 µM, the TGI (SK-MEL-5 melanoma) was 10.1 µM and the GI50 (OVCAR-8 ovarian) was 3.2 µM. The TGI (OVCAR-8 ovarian) was 17.1 µM, the GI50 (SK-OV-3 ovarian) was 4.52 µM and the TGI (SK-OV-3 ovarian) was 16.7 µM. The GI50 (HS 578T breast) was 3.41 µM, the TGI (HS 578T breast) was greater than 100 µM and the GI50 (786-0 renal) was 2.72 µM. The TGI (786-0 renal) was 8.22 µM, the GI50 (OVCAR-3 ovarian) was 2.24 µM and the TGI (OVCAR-3 ovarian) was 4.91 µM. It also gave a GI50 (KM12 colon) of 1.83 µM, a TGI (KM12 colon) of 3.5 µM and a GI50 (NCI/ADR-RES ovarian) of 4.59 µM. The TGI (NCI/ADR-RES ovarian) was 61.2 µM, the GI50 (NCI-H23 lung) was 9.45 µM and the TGI (NCI-H23 lung) was 27.3 µM. For the same compound, the GI50 (UO-31 renal) was 1.54 µM, the TGI (UO-31 renal) was 3.77 µM and the GI50 (SW-620 colon) was 1.85 µM. For the same compound, the TGI (SW-620 colon) was 3.77 µM, the GI50 (UACC-257 melanoma) was 2.98 µM and the TGI (UACC-257 melanoma) was 12 µM. For the same compound, the GI50 (HCT-15 colon) was 1.76 µM, the TGI (HCT-15 colon) was 5.13 µM and the GI50 (COLO 205 colon) was 4.56 µM. For the same compound, the TGI (COLO 205 colon) was 16.4 µM, the GI50 (HT29 colon) was 2.02 µM and the TGI (HT29 colon) was 4.26 µM. The GI50 (SK-MEL-28 melanoma) was 2.3 µM, the TGI (SK-MEL-28 melanoma) was 5.62 µM and the GI50 (OVCAR-5 ovarian) was 6.44 µM. It also gave a TGI (OVCAR-5 ovarian) of 28.4 µM, a GI50 (MCF7 breast) of 0.807 µM and a TGI (MCF7 breast) of 2.24 µM. The GI50 (SF-539 CNS) was 1.87 µM, the TGI (SF-539 CNS) was 4.18 µM and the GI50 (K-562 leukemia) was 2.82 µM. For the same compound, the TGI (K-562 leukemia) was greater than 100 µM, the GI50 (SK-MEL-2 melanoma) was 14.4 µM and the TGI (SK-MEL-2 melanoma) was 29.8 µM. The GI50 (HCC-2998 colon) was 2.02 µM and the TGI (HCC-2998 colon) was 3.71 µM.

From PubChem BioAssay (NCI)
